PMC12828148, “Engineered cyclic peptide targeting ITGA5 disrupts tumor–stroma interaction to overcome desmoplasia and resistance in pancreatic ductal adenocarcinoma” (Acta Pharmaceutica Sinica. B, 2025)
Peptide text beside a SMILES is read from it.

Tests used:
[1] = tested on: TGF-β treated PSCs; assay: Cell adhesion competition study (PSC attachment to FN-coated plate, crystal violet); type: cell-based, human; conditions: 50 μmol/L peptide, 30 min pre-incubation 37 °C, 1 h attachment, crystal violet absorbance 600 nm, n = 3
Experimental: To analyze the interaction of PSC and FN, a 96 suspension well plate was coated with 100 μL FN (Advanced Biomatrix, Carlsbad, CA, USA) at 1 μg/mL by overnight incubation at 4 °C. Next, the plate was washed with DPBS (Lonza) and blocked with 5% bovine serum albumin (BSA) in DPBS for at least 1 h at RT. In the meantime, a cell suspension of 200,000 cells/mL of TGF-β treated PSCs in DPBS with 2 mmol/L Ca^2+ and 2 mmol/L Mg^2+ was treated with 50 μmol/L AV3.3 or cyAV3.3 and incubated for 30 min at 37 °C. After washing the plate with DPBS, 100 μL cell suspension was added to each well and then set to rest for 1 h at RT. The plate was then washed with DPBS to remove unattached cells. […] Next, cells were stained with 0.1% (w/v) crystal violet (Sigma) in 25% methanol at RT. After 20 min, cells were washed with water and lysed with 0.5% (w/v) SDS. The degree of cell attachment was measured by the absorbance of the crystal violet at 600 nm using Tecan Infinite M200 plate reader (Tecan, Mannendorf, Switzerland). In other plate, cells were washed with DPBS after fixation and then stained with DAPI. Images were developed using EVOS fluorescence microscope (Thermo Scientific).

[2] = Peptide stability in human plasma; type: in vitro ADME; conditions: 20 µmol/L peptide, 50% human plasma, 37 °C, 1, 2 and 24 h, TCA precipitation, RP-HPLC UV 280 nm
Experimental: To evaluate the stability, 20 µmol/L peptide was incubated in 50% human plasma at biological temperature 37 °C for 1, 2, and 24 h. After incubation, plasma was precipitated by adding equal volume of 4% trichloroacetic acid (TCA) and rested on ice for 10 min. As control (or 0h), precipitation was performed immediately after mixing the peptide and plasma. Supernatant was collected after centrifugation at 13,300 × g and assessed using reversed phase high performance liquid chromatography (HPLC) with 5%, 95%, and 99.9% acetonitrile in de-gassed water with 0.1% trifluoroacetic acid as eluents. The remaining peptide was analyzed at a wavelength 280 nm.
Quantitative real-time PCR […]
(§1) The next day, the medium […]
(§2) was changed with 0% FBS Stellate Cell medium to starve hPSCs for 24 h. Subsequently, hPSCs were incubated with 5 ng/mL TGF-β1 and peptide for 48 h to examine the effect on protein expression of different markers such as α-SMA and collagen-1. Cells were lysed using 1× blue loading buffer containing 1× DTT reducing agent (Cell Signaling Technology) and homogenized using ultrasonication. Protein lysates were separated on a 4%–20% Tris-Glycine gel (Thermo Scientific) and then transferred onto a PVDF membrane (Thermo Scientific). […]

[3] = tested on: hPSCs activated by TGF-β; assay: Gene expression in TGF-β-activated hPSCs (qPCR, RT2 profiler PCR array); type: cell-based, human
Experimental: Quantitative real-time PCR
To examine the effect of peptides on the gene expression of hPSC activation markers, cells were seeded into a 12 well plate at a seeding density of 50,000 cells/well. After overnight incubation, cells were starved for 24 h, then treated with human recombinant 5 ng/mL TGF-β (Peprotech, […]
After 24 h of the incubation, cells were lysed and total RNA was isolated using GenElute™ Mammalian Total RNA Miniprep Kit (Sigma–Aldrich) and the RNA concentration was measured using a NanoDrop® ND-1000 Spectrophotometer (Thermo Scientific, Waltham, USA). cDNA was synthesized with iScript™ cDNA Synthesis Kit (BioRad, Veenendaal, The Netherlands), and 10 ng cDNA was used for each PCR reaction. The real-time PCR primers (Table S1) were purchased from Sigma–Aldrich. Quantitative real time PCR was performed with 2× SensiMix SYBR and Fluoroscein Kit (Bioline GmbH, Luckenwalde, Germany) using a BioRad CFX384 Real-Time PCR detection system (BioRad). Gene expression levels were normalized to the expression of the house-keeping gene 18s rRNA. […]
as §1, §2

[4] = tested on: PANC-1 homospheroids / PANC-1 + PSC heterospheroids; assay: Gene expression in 3D PANC-1 homospheroids and PANC-1 + PSC heterospheroids (qPCR); type: cell-based, human; conditions: treated Days 3 and 6, qPCR Day 7, n = 3
[5] = tested on: PANC-1 + PSC and MIA PaCa-2 + PSC co-injection xenograft tumors
Experimental: Six-week-old male CB17 SCID mice (Janvier Labs, Le Genest-Saint-Isle, France) were subcutaneously injected with a 2:1 mixture of 4 × 10^6 human PSCs and 2 × 10^6 PANC-1 or MIA PaCa-2 cells. Tumor growth was assessed twice a week. Tumor-bearing mice (±100 mm^3) were treated with phosphate buffered saline (PBS), cyAV3.3, gemcitabine, or combination of gemcitabine and cyAV3.3 intraperitoneally (i.p). Animals were euthanized, tumors and other organs were harvested and embedded in Cryomatrix (Thermo Scientific) before being snap frozen in cold 2-methyl butane (Thermo Scientific) and stored at −80 °C until analyses. […]
Immunohistochemical staining of mouse tumors
Tumors were cut into 7 μm thick sections and mounted on glass slides using Cryotome FSE (Thermo Scientific), dried, and fixed in acetone for 15 min. Tumor sections were rehydrated in PBS for 10 min then incubated with primary antibody diluted in PBS for 1 hour at RT. Antibodies […]
Next, slides were washed 3 times with PBS before incubation with secondary fluorescence-labeled antibody diluted in PBS. After 30 min of incubation, slides were washed with PBS and shielded with a DAPI -containing mounting medium. Images were made using a Hamamatsu NanoZoomer Digital slide scanner 2.0HT (Hamamatsu Photonics, New Jersey, […]

C[C@@H]1NC(=O)[C@H](CCCNC(=N)N)NC(=O)[C@H](Cc2ccc(O)cc2)NC(=O)[C@H](Cc2ccc(O)cc2)NC(=O)[C@H](CCCNC(=N)N)NC(=O)CNC(=O)[C@H](CCCCN)NC(=O)[C@H](Cc2ccc(O)cc2)NC(=O)[C@H]([C@@H](C)O)NC1=O [cyAV3.3] (cyclo(ATYKGRYYR))
blocking of the binding of PSC to FN [1]: blocked the binding of PSC to FN significantly higher than AV3.3 | stability of the peptides in human plasma [2]: significant improvement in the stability | gene expression of FN and ITGA5 ([3]; hPSCs activated by TGF-β, cyAV3.3 50 μmol/L, 24 h, qPCR): significantly inhibited the gene expression of FN and ITGA5 | expression of 38 ECM and adhesion genes upregulated by TGF-β (heatmap) ([3]; hPSCs activated by TGF-β, cyAV3.3 50 μmol/L, RT2 Profiler PCR array): downregulated all the upregulated genes | TGF-β-induced gene expression of ACTA2 and COL-1A1 ([3]; hPSCs, 5 ng/mL TGF-β, 24 h, qPCR): inhibited both ACTA2 and COL-1A1 concentration dependently | gene expression levels related to resistance, stemness and ECM in heterospheroids ([4]; PANC-1 + PSC heterospheroids): significantly reduced | gene expression in homospheroids ([4]; PANC-1 homospheroids): some genes including ABCG1, KRAS, MMP2, MMP9 were inhibited | reduction of tumor size / tumor growth ([5]; PANC-1 + PSC and MIA PaCa-2 + PSC co-injection xenografts, i.p. treatment, n = 4 per group per tumor type): ~30% | signs of toxicity (body mass, organ mass) ([5]; co-injection xenograft mice, i.p. treatment): did not show any obvious signs of toxicity | tumor blood vessel (CD31+) lumen diameter ([5]; immunofluorescence, co-injection xenograft tumors): larger lumen diameter compared to the control tumors
